Measured values from PubChem BioAssay (NCI).
Several values for one entry are separate records, joined by “and”; a condition that tells them apart may be missing. Equal values may be shown once.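 Method: 48-hour compound exposure of cells in 96-well plates, five concentrations, linear interpolation of endpoints. GI50 marks 50% less growth. The concentration for full growth arrest is given as TGI.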

Key:
Assay in all cases: NCI tumour cell line growth inhibition, 48 h
HCT-116 colon = test system: HCT-116 colon
NCI-H522 lung = test system: NCI-H522 lung
LOX IMVI melanoma = test system: LOX IMVI melanoma
SNB-19 CNS = test system: SNB-19 CNS
CAKI-1 renal = test system: CAKI-1 renal
PC-3 prostate = test system: PC-3 prostate
HCT-15 colon = test system: HCT-15 colon
UO-31 renal = test system: UO-31 renal
UACC-62 melanoma = test system: UACC-62 melanoma
EKVX NSCLC = test system: EKVX NSCLC

CC1(C)CC2(C)OC2C2(C1)N=NC(=Nc1ccccc1)O2 (centres undefined)
GI50 (HCT-116 colon): 1.29 µM
TGI (HCT-116 colon): 6.45 µM
GI50 (NCI-H522 lung): 1.61 µM
TGI (NCI-H522 lung): 3.33 µM
GI50 (LOX IMVI melanoma): 1.06 µM
TGI (LOX IMVI melanoma): 2.62 µM
GI50 (SNB-19 CNS): 14.1 µM
TGI (SNB-19 CNS): 28 µM
GI50 (CAKI-1 renal): 2.68 µM
TGI (CAKI-1 renal): 12.5 µM
GI50 (PC-3 prostate): 11.5 µM
TGI (PC-3 prostate): 28.9 µM
GI50 (HCT-15 colon): 1.68 µM
TGI (HCT-15 colon): 4.62 µM
GI50 (UO-31 renal): 1.67 µM
TGI (UO-31 renal): 4.02 µM
GI50 (UACC-62 melanoma): 3.76 µM
TGI (UACC-62 melanoma): 16 µM

CC(C)C[C@H](NC(=O)[C@@H](O)[C@H](N)Cc1ccccc1)C(=O)O
TGI (HCT-116 colon): > 100 µM
GI50 (NCI-H522 lung): > 100 µM
TGI (NCI-H522 lung): > 100 µM
TGI (LOX IMVI melanoma): > 100 µM
TGI (SNB-19 CNS): > 100 µM
TGI (CAKI-1 renal): > 100 µM
TGI (PC-3 prostate): > 100 µM
TGI (HCT-15 colon): > 100 µM
GI50 (UO-31 renal): > 100 µM
TGI (UO-31 renal): > 100 µM
TGI (UACC-62 melanoma): > 100 µM

COc1ccc(-n2nc(C)c3c2N(C)C2(C)C[C@@H]4C3(C)[C@@H]3CC4(C2)N(C)c2c(c(C)nn2-c2ccc(OC)cc2)[C@H]3C)cc1 (some centres undefined)
GI50 (HCT-116 colon): 2.09 µM
TGI (HCT-116 colon): > 100 µM
GI50 (NCI-H522 lung): 0.891 µM
TGI (NCI-H522 lung): 6.94 µM
GI50 (SNB-19 CNS): 4.45 µM
TGI (SNB-19 CNS): 86.3 µM
GI50 (UACC-62 melanoma): 12.6 µM
TGI (UACC-62 melanoma): > 100 µM

O=C1c2ccccc2C(=O)c2c1ccc1c3ccccc3n(Cc3ccccc3)c21
TGI (HCT-116 colon): > 100 µM
TGI (NCI-H522 lung): > 100 µM
TGI (LOX IMVI melanoma): > 100 µM
TGI (CAKI-1 renal): > 100 µM
TGI (HCT-15 colon): > 100 µM
TGI (EKVX NSCLC): > 100 µM
TGI (UO-31 renal): > 100 µM
TGI (UACC-62 melanoma): > 100 µM

CCC1NCC(=O)c2c1[nH]c1ccccc21 (centres undefined)
TGI (HCT-116 colon): > 100 µM
TGI (NCI-H522 lung): > 100 µM
TGI (LOX IMVI melanoma): > 100 µM
TGI (SNB-19 CNS): > 100 µM
TGI (CAKI-1 renal): > 100 µM
TGI (HCT-15 colon): > 100 µM
TGI (EKVX NSCLC): > 100 µM
TGI (UO-31 renal): > 100 µM
TGI (UACC-62 melanoma): > 100 µM

CC(=O)Nc1ccc(C(=O)N2N=C(C)/C(=C/c3cccc(O)c3)C2=O)cc1
TGI (HCT-116 colon): > 100 µM
TGI (NCI-H522 lung): > 100 µM
TGI (LOX IMVI melanoma): > 100 µM
TGI (SNB-19 CNS): > 100 µM
TGI (CAKI-1 renal): > 100 µM
TGI (HCT-15 colon): > 100 µM
TGI (EKVX NSCLC): > 100 µM
TGI (UO-31 renal): > 100 µM

COC(=O)C1CCC(=NC2c3ccccc3-c3ccccc32)N1 (centres undefined)
TGI (HCT-116 colon): > 100 µM
TGI (NCI-H522 lung): 58.6 µM
TGI (SNB-19 CNS): > 100 µM
TGI (CAKI-1 renal): > 100 µM
TGI (HCT-15 colon): > 100 µM
TGI (EKVX NSCLC): > 100 µM
TGI (UO-31 renal): > 100 µM
TGI (UACC-62 melanoma): > 100 µM

COC(=O)C(=O)C(C(=O)C(=O)Nc1ccccc1C(N)=O)c1nc2ccc(C(=O)c3ccccc3)cc2[nH]c1=O (centres undefined)
TGI (HCT-116 colon): > 100 µM
TGI (NCI-H522 lung): 93.8 µM
TGI (SNB-19 CNS): > 100 µM
TGI (CAKI-1 renal): > 100 µM
TGI (HCT-15 colon): > 100 µM
TGI (EKVX NSCLC): > 100 µM
TGI (UO-31 renal): > 100 µM
TGI (UACC-62 melanoma): 65.4 µM

C/C(=N\NC(=S)N1CCC(C2CCN(C(=S)N/N=C(\C)c3ccccn3)CC2)CC1)c1ccccn1
TGI (HCT-116 colon): > 100 µM
TGI (NCI-H522 lung): > 100 µM
TGI (LOX IMVI melanoma): > 100 µM
TGI (SNB-19 CNS): > 100 µM
TGI (CAKI-1 renal): > 100 µM
TGI (EKVX NSCLC): > 100 µM
TGI (UO-31 renal): > 100 µM
TGI (UACC-62 melanoma): > 100 µM

CCNC(=O)Oc1ccc(/C(=C(\C)c2ccc(Cl)cc2)c2ccc(OCCN3CCCCC3)cc2)cc1
GI50 (HCT-116 colon): 1.69 µM
TGI (HCT-116 colon): 3.22 µM
GI50 (NCI-H522 lung): 14.1 µM
TGI (NCI-H522 lung): 29.9 µM
GI50 (LOX IMVI melanoma): 1.93 µM
TGI (LOX IMVI melanoma): 3.94 µM
GI50 (SNB-19 CNS): 4.77 µM
TGI (SNB-19 CNS): 16.2 µM
GI50 (PC-3 prostate): 3.38 µM
TGI (PC-3 prostate): 11.3 µM
GI50 (HCT-15 colon): 2.49 µM
TGI (HCT-15 colon): 7.72 µM
GI50 (EKVX NSCLC): 6.14 µM
TGI (EKVX NSCLC): 21.9 µM
GI50 (UO-31 renal): 2.05 µM
TGI (UO-31 renal): 5.45 µM
GI50 (UACC-62 melanoma): 2.5 µM
TGI (UACC-62 melanoma): 6.01 µM

Clc1ccccc1C1=NN(c2ccccc2)C2c3cc(Br)ccc3OCC12 (centres undefined)
TGI (HCT-116 colon): > 100 µM
TGI (NCI-H522 lung): > 100 µM
TGI (SNB-19 CNS): > 100 µM
TGI (EKVX NSCLC): > 100 µM
TGI (UO-31 renal): > 100 µM

CCCCCCCCC(=O)NCCCNCCCNC(=O)CCCCCCCC
TGI (HCT-116 colon): 9.54 µM
TGI (NCI-H522 lung): 18.8 µM
TGI (LOX IMVI melanoma): 3.19 µM
TGI (SNB-19 CNS): 35.9 µM
TGI (CAKI-1 renal): 27.7 µM
TGI (HCT-15 colon): 28.2 µM
TGI (EKVX NSCLC): 30.1 µM
TGI (UO-31 renal): 27.6 µM
TGI (UACC-62 melanoma): 12.3 µM

CCCCCCN1C(=O)CN=C1Nc1ccc2cc3ccc(NC4=NCC(=O)N4CCCCCC)cc3nc2c1
GI50 (HCT-116 colon): 1.19 µM
TGI (HCT-116 colon): 2.48 µM
GI50 (NCI-H522 lung): 1.79 µM
TGI (NCI-H522 lung): 3.91 µM
GI50 (SNB-19 CNS): 2.07 µM
TGI (SNB-19 CNS): 4.67 µM
GI50 (PC-3 prostate): 2.54 µM
TGI (PC-3 prostate): 9 µM
GI50 (EKVX NSCLC): 1.89 µM
TGI (EKVX NSCLC): 5.22 µM
GI50 (UO-31 renal): 1.24 µM
TGI (UO-31 renal): 2.54 µM
GI50 (UACC-62 melanoma): 11.7 µM
TGI (UACC-62 melanoma): 30 µM

CC(C)(C)c1ccc(S(=O)(=O)N[C@H]2CC[C@H]3[C@@H]4CCc5cc(O)ccc5[C@H]4CC[C@]23C)cc1
GI50 (HCT-116 colon): 1.63 µM
TGI (HCT-116 colon): 2.98 µM
GI50 (NCI-H522 lung): 2.5 µM
TGI (NCI-H522 lung): 7.13 µM
GI50 (LOX IMVI melanoma): 1.77 µM
TGI (LOX IMVI melanoma): 3.17 µM
GI50 (SNB-19 CNS): 3.54 µM
TGI (SNB-19 CNS): 18 µM
GI50 (CAKI-1 renal): 2.28 µM
TGI (CAKI-1 renal): 6.26 µM
GI50 (PC-3 prostate): 2.1 µM
TGI (PC-3 prostate): 7.57 µM
GI50 (UO-31 renal): 1.81 µM
TGI (UO-31 renal): 4.11 µM
GI50 (UACC-62 melanoma): 2.16 µM
TGI (UACC-62 melanoma): 5.91 µM

O=C1/C(=C/c2ccccc2)CN(C(=O)Oc2ccc([N+](=O)[O-])cc2)C/C1=C\c1ccccc1
GI50 (HCT-116 colon): 0.303 µM
TGI (HCT-116 colon): 1.65 µM and 1.08 µM
GI50 (NCI-H522 lung): 2.15 µM
TGI (NCI-H522 lung): 8.54 µM and 5.13 µM
GI50 (LOX IMVI melanoma): 1.57 µM
TGI (LOX IMVI melanoma): 1.26 µM and 3.36 µM
GI50 (HCT-15 colon): 2.74 µM
TGI (HCT-15 colon): 5.63 µM
GI50 (UACC-62 melanoma): 3.81 µM

Cc1csc(Nc2nc(-c3cccc(Cl)c3)nc(C(Cl)(Cl)Cl)n2)n1
GI50 (HCT-116 colon): 2.29 µM
TGI (HCT-116 colon): > 33.3 µM
GI50 (NCI-H522 lung): > 33.3 µM
TGI (NCI-H522 lung): > 33.3 µM
GI50 (SNB-19 CNS): 3.27 µM
TGI (SNB-19 CNS): > 33.3 µM
GI50 (CAKI-1 renal): 3.07 µM
TGI (CAKI-1 renal): > 33.3 µM
GI50 (PC-3 prostate): 1.27 µM
TGI (PC-3 prostate): 7.85 µM
GI50 (HCT-15 colon): 4.46 µM
TGI (HCT-15 colon): > 33.3 µM
GI50 (EKVX NSCLC): 1.25 µM
TGI (EKVX NSCLC): 6.89 µM
GI50 (UO-31 renal): 2.38 µM
TGI (UO-31 renal): 15.7 µM
GI50 (UACC-62 melanoma): 6.73 µM
TGI (UACC-62 melanoma): > 33.3 µM

O=C1c2cccc3cccc(c23)C(=O)N1CCCN1CCN(CCCN2C(=O)c3cccc4cccc(c34)C2=O)CC1
TGI (HCT-116 colon): > 100 µM
TGI (LOX IMVI melanoma): > 100 µM
TGI (SNB-19 CNS): > 100 µM
TGI (CAKI-1 renal): > 100 µM
TGI (HCT-15 colon): > 100 µM
TGI (EKVX NSCLC): > 100 µM
TGI (UO-31 renal): > 100 µM
TGI (UACC-62 melanoma): > 100 µM

Cc1c(-c2coc(-c3ccc(Cl)cc3)n2)c(=O)n(-c2ccccc2)n1C
TGI (HCT-116 colon): > 100 µM
TGI (NCI-H522 lung): > 100 µM
TGI (LOX IMVI melanoma): > 100 µM
TGI (HCT-15 colon): > 100 µM
TGI (EKVX NSCLC): > 100 µM
TGI (UO-31 renal): > 100 µM
TGI (UACC-62 melanoma): > 100 µM

COc1ccccc1NC(=O)C(=O)C1C(=O)Nc2ccccc2S1=O (centres undefined)
TGI (HCT-116 colon): > 100 µM
TGI (NCI-H522 lung): > 100 µM
TGI (LOX IMVI melanoma): > 100 µM
TGI (SNB-19 CNS): > 100 µM
TGI (CAKI-1 renal): > 100 µM
TGI (HCT-15 colon): > 100 µM
TGI (EKVX NSCLC): > 100 µM
TGI (UO-31 renal): > 100 µM
TGI (UACC-62 melanoma): > 100 µM
